Test results as given in EP0163537A1, “1-Propanone derivatives and pharmaceutical compositions containing same” (priority 1984, dated 1985).
Structures can show the parent of a compound that is named as a salt. Where two headings read alike, the source gives them in different places.

Key:
Assay type in all cases: in vivo
[1] = tested on: Male rats of Wistar strain; experiment: Test 4 Effect on decerebrate rigidity induced by transection between superior and inferior colliculi
Protocol: Male rats of Wistar strain, weighing 300 to 400 g, were used. The test compounds were dissolved in physiological saline and administered intravenously in doses of 10 mg/kg and 20 mg/kg.
Rigidity preparations were made according to the method of Fukuda et al. [The Japanese Journal of Pharmacology, 22, 457 (1972)]. Specifically, after a rat was fixed in a prone position under ether anesthesia, an incision was made in the head. The skull was removed around the occipital region to expose the brain. […] More than 2 hours after operation, the rat was mounted in a supine position on a fixing stand. Thus, the effect of the test compounds was evaluated by using the occurrence of rigidity in the antigravity muscles of the limbs as an index.

Male mice of ddY strain [2] = experiment: Test 1 Anti-nicotine activity (inhibition of nicotine-induced convulsive death); details: 200 mg/kg po, nicotine 2 mg/kg iv after 1 h, observed 1 h; for responders at 200 mg/kg: Mus musculus
Protocol: Male mice of ddY strain, weighing 28 to 33 g, were used in groups of eight or twelve. The test compounds were dissolved in distilled water and administered orally in a dose of 200 mg/kg. After an hour, nicotine was intravenously administered in a dose of 2 mg/kg.

[3] = Test 5 Acute toxicity (LD50, method of Behrens and Kärbar); details: mouse, in vivo, mice, observed for 7 days
Protocol: (§1) Male mice of ddY strain, weighing 25 to 30 g, were used in groups of five. The test compounds were dissolved in distilled water and administered orally in various doses. […] Then, the LDso was calculated according to the method of Behrens and Kärbar.

Male mice of ddY strain [4] = experiment: Test 3 Muscle relaxant activity (traction test, method of Courvoisier et al.); details: 15 minutes after administration, groups of ten
Protocol: Male mice of ddY strain, weighing 30 to 37 g, were used in groups of ten. The test compounds were dissolved in physiological saline and administered intraperitoneally in a dose of 50 or 75 mg/kg. […] This method involves a traction test in which the animal is hung by its forelimbs on a horizontal metal rod (2 mm in diameter) placed 20 cm above the floor and examined as to whether it can put its hindlimb on the rod or not.
Specifically, 15 minutes after administration of a test compound, the mouse was hung on the rod by its forelimbs. […] It had been confirmed in preliminary tests that, under normal conditions, all the mice could put their hindlimb on the rod within 5 seconds.

Male mice of ddY strain [5] = experiment: Test 2 Anti-tremorine activity (inhibition of tremorine-induced tremor); details: for responders at 50 mg/kg: Mus musculus, po, read-out: Inhibition of tremor (%)
Protocol: Male mice of ddY strain, weighing 28 to 32 g, were used in groups of eight or ten. The test compounds were dissolved in distilled water and administered orally in a dose of 50 mg/kg. After 30 minutes, tremorine dihydrochloride was subcutaneously administered in a dose of 20 mg/kg. Then, the occurrence of tremor was observed after the lapse of 30 and 60 minutes.

Male mice of ddY strain [6] = experiment: Test 5 Acute toxicity (LD50, method of Behrens and Kärbar); details: Table-5a, observed for 7 days
Protocol: as §1

[7] = Table-3d, 50 mg/kg po, After 30 min., 10 animals used
[8] = Table-3d, 50 mg/kg po, After 60 min., 10 animals used
[9] = Table-3a, 50 mg/kg po, After 30 min. from tremorine 20 mg/kg sc, 8 animals used
[10] = Table-3a, 50 mg/kg po, After 60 min. from tremorine 20 mg/kg sc, 8 animals used
[11] = po, 1 h, Table-2c, 12 animals used
[12] = 0.5 h, Table-3d, 50 mg/kg po, After 30 min., 10 animals used
[13] = 1 h, Table-3d, 50 mg/kg po, After 60 min., 10 animals used

Molecule: CCCC(CN1CCCCC1)C(=O)c1ccc2c(c1)OCO2 (stereo not shown) [Example 66, 1-(3,4-Methylenedioxyphenyl)-2-n-propyl-3-piperi-dino-1-propanone hydrochloride]
- rigidity of the forelimbs and hindlimbs ([1]; 20 mg/kg intravenously): relaxed the rigidity similarly
- responders at 200 mg/kg (Male mice of ddY strain [2]; Table-2b, 12 animals used): 58.3%
- Number of surviving animals (Male mice of ddY strain [2]; Table-2b, 12 animals used): 7
- LD50 at 168 h ([3]; Table-5b, oral): 625 mg/kg

Molecule: CC(CN1CCCC1)C(=O)c1ccc2c(c1)CCO2.Cl (stereo not shown) [Example 92, 1-(2,3-Dihydro-5-benzofuranyl)-2-methyl-3-(1-pyrrolidinyl)-1-propanone hydrochloride]
- rigidity of the forelimbs and hindlimbs ([1]; 20 mg/kg intravenously): relaxed the rigidity similarly
- responders at 200 mg/kg (Male mice of ddY strain [2]; Table-2c, 12 animals used): 75%
- Number of surviving animals (Male mice of ddY strain [2]; Table-2c, 12 animals used): 9
- Number of animals exhibiting muscle relaxation (Male mice of ddY strain [4]; Table-4d, 75 mg/kg ip): 6
- responders at 50 mg/kg (Male mice of ddY strain [5]; 0.5 h): 100%
- responders at 50 mg/kg (Male mice of ddY strain [5]; 1 h): 100%
- Number of animals exhibiting no tremor (Male mice of ddY strain [5]; [7]): 10
- Number of animals exhibiting no tremor (Male mice of ddY strain [5]; [8]): 10
- LD50 at 168 h ([3]; Table-5c, oral): 685 mg/kg

Molecule: 1-(4-Cyclopropylphenyl)-2-methyl-3-piperidino-1-propanone hydrochloride [Example 1]
- rigidity of the forelimbs and hindlimbs ([1]; 10 mg/kg intravenously): relaxed the rigidity of the forelimbs and hindlimbs to a significant degree
- Inhibition of death (%) (Male mice of ddY strain [2]; Table-2a, 8 animals used): 100.0%
- Number of surviving animals (Male mice of ddY strain [2]; Table-2a, 8 animals used): 8
- Muscle relaxation rate (%) (Male mice of ddY strain [4]; Table-4a, 50 mg/kg ip): 60%
- Number of animals exhibiting muscle relaxation (Male mice of ddY strain [4]; Table-4a, 50 mg/kg ip): 6
- Inhibition of tremor (%) (Male mice of ddY strain [5]; [9]): 100%
- Number of animals exhibiting no tremor (Male mice of ddY strain [5]; [9]): 8
- Inhibition of tremor (%) (Male mice of ddY strain [5]; [10]): 87.5%
- Number of animals exhibiting no tremor (Male mice of ddY strain [5]; [10]): 7
- Acute toxicity LD50 (mg/kg,po) (Male mice of ddY strain [6]): 535 mg/kg

Molecule: CC(CN1CCCCC1)C(=O)c1ccc2c(c1)OCO2.Cl (stereo not shown) [Example 57, 2-Methyl-1-(3,4-methylenedioxyphenyl)-3-piperidino-1-propanone hydrochloride]
- rigidity of the forelimbs and hindlimbs ([1]; 20 mg/kg intravenously): relaxed the rigidity similarly
- responders at 200 mg/kg (Male mice of ddY strain [2]; Table-2b, 12 animals used): 41.7%
- Number of surviving animals (Male mice of ddY strain [2]; Table-2b, 12 animals used): 5
- LD50 at 168 h ([3]; Table-5b, oral): 625 mg/kg

Molecule: CCC(CN1CCCCC1)C(=O)c1ccc2c(c1)OCO2.Cl (stereo not shown) [Example 53, 2-Ethyl-1-(3,4-methylenedioxyphenyl)-3-piperidino-1-propanone hydrochloride]
- rigidity of the forelimbs and hindlimbs ([1]; 20 mg/kg intravenously): relaxed the rigidity similarly
- responders at 200 mg/kg (Male mice of ddY strain [2]; po, 1 h, Table-2b, 12 animals used): 83.3%
- Number of surviving animals (Male mice of ddY strain [2]; Table-2b, 12 animals used): 10
- LD50 at 168 h ([3]; po, Table-5b): 565 mg/kg

Molecule: CC(CN1CCCCCC1)C(=O)c1ccc2c(c1)CCO2.Cl (stereo not shown) [Example 93, 1-(2,3-Dihydro-5-benzofuranyl)-2-methyl-3-(hexahydro-1H-azepin-1-yl)-1-propanone hydrochloride]
- rigidity of the forelimbs and hindlimbs ([1]; 20 mg/kg intravenously): relaxed the rigidity similarly
- responders at 200 mg/kg (Male mice of ddY strain [2]; [11]): 58.3%
- Number of surviving animals (Male mice of ddY strain [2]; Table-2c, 12 animals used): 7
- Number of animals exhibiting muscle relaxation (Male mice of ddY strain [4]; Table-4d, 75 mg/kg ip): 6
- responders at 50 mg/kg (Male mice of ddY strain [5]; [12]): 100%
- responders at 50 mg/kg (Male mice of ddY strain [5]; [13]): 100%
- Number of animals exhibiting no tremor (Male mice of ddY strain [5]; [7]): 10
- Number of animals exhibiting no tremor (Male mice of ddY strain [5]; [8]): 10
- LD50 at 168 h ([3]; po, Table-5c): 685 mg/kg

Molecule: CC(CN1CCCCC1)C(=O)c1ccc2c(c1)CCO2.Cl (stereo not shown) [Example 85, 1-(2,3-Dihydro-5-benzofuranyl)-2-methyl-3-piperidino-1-propanone hydrochloride]
- rigidity of the forelimbs and hindlimbs ([1]; 20 mg/kg intravenously): relaxed the rigidity similarly
- responders at 200 mg/kg (Male mice of ddY strain [2]; [11]): 66.7%
- Number of surviving animals (Male mice of ddY strain [2]; Table-2c, 12 animals used): 8
- Number of animals exhibiting muscle relaxation (Male mice of ddY strain [4]; Table-4d, 75 mg/kg ip): 8
- responders at 50 mg/kg (Male mice of ddY strain [5]; [12]): 100%
- responders at 50 mg/kg (Male mice of ddY strain [5]; [13]): 100%
- Number of animals exhibiting no tremor (Male mice of ddY strain [5]; [7]): 10
- Number of animals exhibiting no tremor (Male mice of ddY strain [5]; [8]): 10
- LD50 at 168 h ([3]; po, Table-5c): 625 mg/kg
